Reference: patent publication US12486270B2, “Receptor tyrosine kinase inhibitors for treatment of protein kinase modulation-responsive disease or disorder” (THE UNITED STATES OF AMERICA, as represented by the …, priority 2019, dated 2025)

Key:
[1] = target: T1, EphA2 (Homo sapiens (Human), UniProt P29317); experiment: Binding affinity to EphA2 by microscale thermophoresis (MST); conditions: towards EphA2
Text: The binding affinities of the compounds to EphA2 were investigated by microscale thermophoresis (MST) (M. Jerabek-Willemsen et al., J. Mol. Struct. 2014, 1077, 101-113).

[2] = test system: SW620 colorectal cancer cell; experiment: Cell death by flow cytometry after DRAQ5/PI staining, colorectal cancer cells (SW620); type: cell-based, human; conditions: 72 hours
Description: Cell viability was measured by flow cytometry. Briefly, floating and adherent cells were collected by centrifugation, pelleted and suspended in PBS −/− (ThermoFisher, 10010-049) supplemented with 1% BSA (Sigma, A2153), 5 mM EDTA (Qualify Biological, 351-027), 10 mM glucose (Sigma, D9434) and 10 mM HEPES (Corning, 25-060-CI). After the cells (1×10^6 cells/mL) were stained with 25 μM DRAQ5 (BioLegend, San Diego, CA; 424101) for 60 minutes and 2 μg propidium iodide (ThermoFisher, P3566) for 15 minutes, analysis was performed on a FACSCantoll (BD Biosciences, Franklin Lakes, NJ; 338962). Results were analyzed by FloJo software (FlowJo LLC, Ashland, OR).

[3] = test system: SW620 cells; experiment: Cleaved caspase-3 immunofluorescence microscopy in colorectal cancer cells (SW620); type: cell-based, human; conditions: 72 hours
Description: Cell viability was also measured by detection of cell-associated cleaved caspase-3. Cells were grown on gelatin-coated glass chamber slides, fixed in 4% paraformaldehyde, immune-stained with rabbit monoclonal antibody to cleaved Caspase 3 (1:100 Cell Signaling Technology) followed by Alexa Fluor 488-conjugated anti-rabbit IgG (1:400 Invitrogen) and mounted with Vectastain containing DAPI (Vector Laboratories). The slides were imaged through a Zeiss LSM780 confocal microscope. Image quantification (cleaved Caspase-3^+ nucleiltotal nuclei) was performed by CellProfiler software.

[4] = test system: LC3B; experiment: LC3B autophagy marker by immunoblotting in HT-29 cells; type: cell-based, human; conditions: 72-hour incubation
Description: Western blotting. Protein lysates were separated by SDS-PAGE and then transferred to a nitrocellulose membrane. After blocking, membranes were incubated overnight with antibodies to LC3 (rabbit Monoclonal antibody, Cell Signaling).

[5] = test system: SW620; experiment: Cell cycle analysis by flow cytometry in colorectal cancer cells (SW620); type: cell-based, human; conditions: 72 hours; compared to control and NVP/NVP-Iso
Description: Cell cycle was assessed by flow cytometry. Adherent cells were harvested, washed with PBS and fixed for 30 minutes in cold 70% ethanol at 4° C. Cells were washed twice with PBS, treated with 2.5 μg/mL RNaseA (ThermoFisher, 12091039) for 30 minutes at room temperature, and then stained with 10 μg propidium iodide for 15 minutes prior to analysis performed on FACS Canton (BD Biosciences; San Jose, CA) and cell cycled analyzed (FloJo software).

[6] = target: EphB4 (Homo sapiens (Human), UniProt P54760); experiment: Endogenous EphB4 tyrosine phosphorylation by ELISA in HT29 cell lysates; type: cell-based; conditions: four hours treatment
EphB4, sequence (P54760 16-987): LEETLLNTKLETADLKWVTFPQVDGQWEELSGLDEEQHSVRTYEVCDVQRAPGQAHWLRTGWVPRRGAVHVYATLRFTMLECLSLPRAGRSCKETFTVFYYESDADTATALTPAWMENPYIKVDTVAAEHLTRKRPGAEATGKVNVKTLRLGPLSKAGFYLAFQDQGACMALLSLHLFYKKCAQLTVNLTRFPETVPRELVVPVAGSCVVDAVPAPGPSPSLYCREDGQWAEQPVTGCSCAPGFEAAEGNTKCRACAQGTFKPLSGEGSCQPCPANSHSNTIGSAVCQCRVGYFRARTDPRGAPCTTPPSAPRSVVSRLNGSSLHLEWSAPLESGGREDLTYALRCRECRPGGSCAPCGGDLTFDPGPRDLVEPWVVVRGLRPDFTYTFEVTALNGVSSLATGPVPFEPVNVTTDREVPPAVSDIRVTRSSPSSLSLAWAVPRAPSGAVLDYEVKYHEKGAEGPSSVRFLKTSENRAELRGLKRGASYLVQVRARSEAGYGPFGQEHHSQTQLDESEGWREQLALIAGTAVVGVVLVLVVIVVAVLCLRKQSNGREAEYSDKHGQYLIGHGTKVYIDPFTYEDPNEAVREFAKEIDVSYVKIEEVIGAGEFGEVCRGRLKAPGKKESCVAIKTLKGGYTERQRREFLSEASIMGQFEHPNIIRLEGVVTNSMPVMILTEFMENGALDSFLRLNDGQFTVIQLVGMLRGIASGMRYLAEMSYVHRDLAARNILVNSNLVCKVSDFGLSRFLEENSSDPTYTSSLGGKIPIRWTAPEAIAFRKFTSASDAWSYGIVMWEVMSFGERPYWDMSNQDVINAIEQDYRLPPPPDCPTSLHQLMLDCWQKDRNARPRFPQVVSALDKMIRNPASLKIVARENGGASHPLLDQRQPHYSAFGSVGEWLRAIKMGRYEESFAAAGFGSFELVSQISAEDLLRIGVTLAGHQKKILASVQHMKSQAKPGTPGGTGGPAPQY
Description: (§1) ELISA. ELISA plates (ThermoFisher Scientific, Immulon 4HBX, 3855) were coated overnight at 4° C. with capture antibody 75 ng/well in PBS, and blocked with 5% BSA (Sigma-Aldrich, St. Louis, MO) in PBS for two hours at room temperature. Capture antibodies for EphB4 was goat polyclonal antibody (R&D Systems AF3038); for EphA2 was goat polyclonal antibody (R&D Systems AF3035); 10 ug of cell lysate was applied to the ELISA well for two hours at room temperature. The amount of tyrosine phosphorylation was measured with pTyr-HRP antibody (R&D Systems, HAM1676). The ELISA was developed with 3,3′,5,5′-Tetramethylbenzidine (TMB) (ThermoFisher Scientific, 7588927) for 15 minutes and stopped with 1M H2SO4 (Sigma-Aldrich, 258105). Absorbance at 450 nm was measured using POLARstar Optima plate reader (BMG Labtech, Cary, NC). All conditions were tested in duplicate. pEphB2 was measured by ELISA (Ray Biotech, PEL-EphB2-Y) according to the manufacturer's recommendations.

[7] = target: EphB2 (Homo sapiens (Human), UniProt P29323); experiment: Endogenous EphB2 tyrosine phosphorylation by ELISA in Colo-205 cell lysates; type: cell-based; conditions: four hours treatment
EphB2, sequence (P29323 19-1055): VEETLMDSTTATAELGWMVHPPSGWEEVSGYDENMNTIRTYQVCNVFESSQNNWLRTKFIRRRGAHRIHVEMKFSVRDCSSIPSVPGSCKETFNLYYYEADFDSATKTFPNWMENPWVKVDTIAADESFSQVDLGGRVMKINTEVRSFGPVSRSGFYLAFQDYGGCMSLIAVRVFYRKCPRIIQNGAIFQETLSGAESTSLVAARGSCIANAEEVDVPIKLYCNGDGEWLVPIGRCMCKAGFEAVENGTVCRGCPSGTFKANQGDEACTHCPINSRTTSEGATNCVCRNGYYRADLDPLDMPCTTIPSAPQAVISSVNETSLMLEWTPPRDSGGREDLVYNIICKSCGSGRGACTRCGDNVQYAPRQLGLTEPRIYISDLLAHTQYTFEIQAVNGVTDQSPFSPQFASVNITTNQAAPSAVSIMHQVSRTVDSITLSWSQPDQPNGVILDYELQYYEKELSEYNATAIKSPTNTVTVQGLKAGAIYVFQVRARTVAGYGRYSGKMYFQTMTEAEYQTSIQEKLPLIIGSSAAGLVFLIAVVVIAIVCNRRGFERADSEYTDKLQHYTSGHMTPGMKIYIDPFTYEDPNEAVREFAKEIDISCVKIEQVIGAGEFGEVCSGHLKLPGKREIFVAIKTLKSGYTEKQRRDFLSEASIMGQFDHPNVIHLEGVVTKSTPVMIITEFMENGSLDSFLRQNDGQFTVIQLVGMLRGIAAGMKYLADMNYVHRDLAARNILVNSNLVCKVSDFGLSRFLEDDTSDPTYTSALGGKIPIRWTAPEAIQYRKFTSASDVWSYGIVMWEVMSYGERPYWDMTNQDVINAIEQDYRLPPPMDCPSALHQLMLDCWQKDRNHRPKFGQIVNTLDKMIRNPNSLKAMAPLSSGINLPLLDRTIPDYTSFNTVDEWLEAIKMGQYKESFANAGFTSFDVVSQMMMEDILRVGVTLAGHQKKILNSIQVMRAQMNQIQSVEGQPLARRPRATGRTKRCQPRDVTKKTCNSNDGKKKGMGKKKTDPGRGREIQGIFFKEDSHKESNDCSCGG
Description: as §1

[8] = target: T1, EphA2; experiment: Endogenous EphA2 tyrosine phosphorylation by ELISA in RKO cell lysates; type: cell-based; conditions: four hours treatment
Description: as §1

T1 sequence (P29317 24-976): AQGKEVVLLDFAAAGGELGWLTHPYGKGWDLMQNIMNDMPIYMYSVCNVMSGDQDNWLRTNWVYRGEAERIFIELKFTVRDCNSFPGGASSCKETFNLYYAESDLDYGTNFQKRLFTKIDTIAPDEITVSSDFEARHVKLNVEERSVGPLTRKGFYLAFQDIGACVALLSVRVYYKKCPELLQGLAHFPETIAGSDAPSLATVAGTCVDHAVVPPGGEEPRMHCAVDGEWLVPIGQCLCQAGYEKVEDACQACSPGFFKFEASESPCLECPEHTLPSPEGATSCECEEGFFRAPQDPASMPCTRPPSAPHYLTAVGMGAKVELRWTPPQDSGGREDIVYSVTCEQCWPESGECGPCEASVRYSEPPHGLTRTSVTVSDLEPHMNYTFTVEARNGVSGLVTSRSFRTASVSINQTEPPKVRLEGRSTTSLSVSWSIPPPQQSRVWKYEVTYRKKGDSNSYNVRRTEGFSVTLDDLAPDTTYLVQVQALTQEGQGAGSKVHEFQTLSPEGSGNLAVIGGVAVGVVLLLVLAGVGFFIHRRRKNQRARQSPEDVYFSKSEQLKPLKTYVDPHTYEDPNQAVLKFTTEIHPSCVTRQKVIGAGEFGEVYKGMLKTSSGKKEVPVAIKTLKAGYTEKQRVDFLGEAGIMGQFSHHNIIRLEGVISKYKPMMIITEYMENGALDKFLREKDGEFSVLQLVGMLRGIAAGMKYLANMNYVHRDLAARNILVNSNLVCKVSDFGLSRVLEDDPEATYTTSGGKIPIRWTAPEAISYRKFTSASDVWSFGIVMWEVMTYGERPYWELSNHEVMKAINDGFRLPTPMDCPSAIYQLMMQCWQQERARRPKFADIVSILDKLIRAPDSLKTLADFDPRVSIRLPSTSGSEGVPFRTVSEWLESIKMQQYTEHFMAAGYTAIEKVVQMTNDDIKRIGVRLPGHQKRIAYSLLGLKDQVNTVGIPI

With `Cc1ccc(C(=O)Nc2cccc(C(F)(F)F)c2)cc1Nc1nc(-c2cnccn2)nc2c1cnn2C` [@1, 4-Methyl-3-((1-methyl-6-(pyrazin-2-yl)-1H-pyrazolo[3,4-d]pyrimidin-4-yl)amino)-N-(3-(trifluoromethyl)phenyl)benzamide] the Kd [1] was 3 nM, the “colorectal cancer cell death by flow cytometry (DRAQ5/PI)” value [2] was “no or minimal colorectal cancer cell death” and the “cleaved caspase-3 detection in treated cells” value [3] was “only in a minority of cells”. For the same compound, the “induction of autophagosome marker LC3B (immunoblotting)” value [4] was “failure”, the “distribution of cells within the cell cycle” value [5] was “marked reduction of the proportion of cells within the G2M phase” and the “inhibitory activity for p-EphB4 compared to NVP” value [6] was “comparable or only slightly reduced inhibitory activity”. For the same compound, the “inhibitory activity for p-EphB2 compared to NVP” value [7] was “comparable or only slightly reduced inhibitory activity” and the “inhibitory activity for p-EphA2 compared to NVP” value [8] was “comparable or only slightly reduced inhibitory activity”.
